The values that follow come from patent publication US10537610B1, “Peptide for inhibition of cancer” (priority 2018, dated 2020).

Test [1] concerns soluble JAM-A. As to the kind of experiment: ELISA of JAM-A antigen in plasma, murine 4T1 breast cancer model. It is filed as in vivo, mouse. The following applies: 4T1 tumor-bearing BALB/c mice and control littermates; Tβ4 15 μg/kg or TGF-β1 5 μg/kg i.p., 21 days. The protocol:
All in vivo experiments were carried on female BALB/c mice aged 8 to 12 weeks purchased from Animal House of Institute of Biology, University of Bialystok (Bialystok, Poland). The mice were housed under standard conditions at the Animal House of the Medical University of Lodz (Lodz, Poland). All animal procedures and protocols were conducted in accordance with the Guide for the Care and Use of Laboratory Animals of the National Animal Care Committee and were approved by Local Ethical Committee for Animal Research in Lodz (license number 9/LB51/2017 from Jun. 2, 2017). All efforts were made to minimize animal suffering.
Murine 4T1 cells were purchased from the American Type Culture Collection (ATCC, Manassas, Va., USA). The cells were maintained in RPMI-1640 (ATCC) with 10/o fetal bovine serum (FBS) and cultured in tissue culture flasks to 80% confluence. […]
The unbound biotinylated antibody was washed away and HRP-conjugated streptavidin was added to the wells. […] Regarding the both protocols, the enzyme-substrate (HRP-TMB) reaction was terminated by the addition of a sulfuric acid solution and the color change was measured spectrophotometrically at a wavelenght of 450 nm using the Wallac 1420 VICTOR2 Multilabel Counter (PerkinElmer). The concentration of target antigen in the samples was determined by comparing the optical density of the samples to the standard curve.
(In general: ELISA stands for enzyme-linked immunosorbent assay.)

Test [2] has as its system JAM-A. As to the kind of experiment: Western blot of JAM-A protein in HMEC-1 cells. It counts as cell-based, human. Particulars: Tβ4 200 nM or TGF-β1 10 ng/mL, 24-hours incubation. The protocol: The cells were lysed with lysis buffer (1% Triton X-100 and 0.1% SDS in PBS) supplemented with Halt Protease Inhibitor Cocktail (Thermo Scientific, Waltham, Mass., USA). For the equalization between the samples before the semi-quantitative analyses the protein content of lysates was determined with the BCA Protein Assay Kit according to the manufacturer's protocol (Thermo Scientific). Cell lysate aliquots at a protein content of 50 μg per sample were boiled with 5× concentrated loading buffer (final concentrations: 50 mM Tris-HCl, pH 6.8, 8% glycerol, 2% SDS, 5% β-mercaptoethanol, 0.002% bromophenol blue), separated under reducing conditions on 4-20% gradient SDS-PAGE gels (Bio-Rad) and electroblotted (120 min, 200 mA, 4° C.) onto polyvinylidene difluoride (PVDF) membranes (Bio-Rad). The membranes were washed with Tris-buffered saline (TBS) and blocked for 2 hours with TBS containing 5% nonfat dry milk at room temperature. Then, the membranes were incubated overnight at 4° C. with an appropriate amount of primary antibody diluted in TBS containing 0.05% Tween 20 (TBST). The following primary antibodies were used: monoclonal rabbit anti-JAM-A (Abcam, Cambridge, UK) at a dilution of 1:500 and monoclonal mouse anti-GAPDH (R&D Systems, Minneapolis, Minn., USA) at a dilution of 1:1000. The membranes were washed several times with TBST and incubated for 1 hour at room temperature with the corresponding polyclonal anti-rabbit and anti-mouse HRP-conjugated secondary antibodies (Santa Cruz Biotechnology, Dallas, Tex., USA) at a 1:5000 dilution in TBST. Following the subsequent washes with TBST the membranes were further processed for chemiluminescent detection using Westar TiC ECL Substrate (Cyanagen, Bologna, Italy) and the images were documented by ChemiDoc MP Imager (Bio-Rad).
(Immunoblotting shows a protein as a band on a membrane.)

Test [3] has as its system JAM-A mRNA. As to the kind of experiment: RT-PCR of JAM-A mRNA in HMEC-1 cells. It is filed as cell-based, human. The following applies: Tβ4 200 nM or TGF-β1 10 ng/mL.
The subject of test [4] is JAM-A (CD321). As to the kind of experiment: Flow cytometry of JAM-A (CD321) on the surface of HMEC-1 cells. The following applies: Tβ4 200 nM, TGF-β1 10 ng/ml or TNF-α 10 ng/mL, 24 hours. It counts as cell-based, human. An excerpt: For the detection of JAM-A surface expression the cells were labeled with FITC anti-human CD321 (F11R) Mouse IgG1 Antibody (BioLegend, San Diego, Calif., USA) or with the FITC Mouse IgG1 Isotype Control Antibody (BioLegend) for the negative control. Labeled cells were washed to remove unbound antibodies, harvested with ice cold EDTA/PBS, fixed with BD CellFix (Becton Dickinson. Franklin Lakes, N.J., USA) and subsequently analyzed by FACS Canto II flow cytometer (Becton Dickinson). Upon excitation at 488 nm with an argon laser the emission of the fluorescence was recorded through selective band pass filter at 517 nm. Data were recorded with DIVA software, version 6.0 (Becton Dickinson) and subsequently analyzed using FCSalyzer software, version 0.9.14-alpha (https://sourceforge.net/projects/fcsalyzer/).

As to Transforming growth factor-β1 [TGF-β1], the “JAM-A level in plasma” value in test [1] is recorded as “decreased the JAM-A plasma level”. In addition, the “level of JAM-A protein” value in test [2] is “evidently reduced the level of JAM-A protein”. In addition, the “JAM-A expression on mRNA level” value in test [3] is “no observed changes of JAM-A expression on mRNA level”. The “JAM-A (CD321) level on the cell surface” value in test [4] is “slightly decreased JAM-A level on the membrane of HMEC-1 cells”.
Turning to tumor necrosis factor-α [TNF-α], the “JAM-A (CD321) level on the cell surface” value in test [4] is “triggered a minor increase of CD321 expression”.
